In publication PMC6880817, “Palladium-catalyzed synthesis and nucleotide pyrophosphatase inhibition of benzo[4,5]furo[3,2-b]indoles” (Beilstein Journal of Organic Chemistry, 2019):
Where two headings read alike, the source gives them in different places.

What was measured:
h-NPP-1 = biological target: T1, h-NPP-1 (Homo sapiens, UniProt P22413); assay: Nucleotide pyrophosphatase inhibition assay (colorimetric, pNP-TMP substrate), h-NPP-1; format: biochemical; details: for interaction with enzyme h-NPP-1: result in words
T1 construct: made in house; host or cells: COS-7 cells transiently transfected with a plasmid expressing human NPP-1; lysate/membrane fraction used as the enzyme
T1 sequence (P22413 1-925): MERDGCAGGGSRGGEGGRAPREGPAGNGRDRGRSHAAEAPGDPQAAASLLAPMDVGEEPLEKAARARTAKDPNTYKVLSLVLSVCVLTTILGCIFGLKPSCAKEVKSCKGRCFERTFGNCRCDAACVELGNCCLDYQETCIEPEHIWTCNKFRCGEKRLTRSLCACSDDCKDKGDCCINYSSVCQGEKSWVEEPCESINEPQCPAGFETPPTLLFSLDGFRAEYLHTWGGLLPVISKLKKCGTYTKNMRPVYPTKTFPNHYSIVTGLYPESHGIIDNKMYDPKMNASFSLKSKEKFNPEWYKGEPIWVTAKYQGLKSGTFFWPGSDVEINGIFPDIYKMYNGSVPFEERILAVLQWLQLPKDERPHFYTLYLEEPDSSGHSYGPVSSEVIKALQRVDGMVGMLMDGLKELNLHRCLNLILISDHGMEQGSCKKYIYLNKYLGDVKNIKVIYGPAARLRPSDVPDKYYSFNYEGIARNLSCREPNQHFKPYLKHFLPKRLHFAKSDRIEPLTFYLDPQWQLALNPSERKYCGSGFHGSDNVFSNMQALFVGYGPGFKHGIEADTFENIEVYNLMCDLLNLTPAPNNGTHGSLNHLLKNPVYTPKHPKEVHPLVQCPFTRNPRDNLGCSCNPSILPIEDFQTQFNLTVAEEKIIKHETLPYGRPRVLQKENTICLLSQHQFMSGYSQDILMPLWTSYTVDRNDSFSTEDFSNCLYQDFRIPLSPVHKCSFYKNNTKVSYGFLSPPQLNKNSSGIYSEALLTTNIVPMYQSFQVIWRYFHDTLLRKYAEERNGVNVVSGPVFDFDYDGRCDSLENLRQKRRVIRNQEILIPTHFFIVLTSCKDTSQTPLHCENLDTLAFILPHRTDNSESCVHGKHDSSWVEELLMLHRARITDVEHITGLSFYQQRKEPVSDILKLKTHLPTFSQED
Protocol: (§1) The inhibition potential of all the sulphonate derivatives against NPP1 and NPP3, was determined by considering an already reported colorimetric method with minor modifications. The reaction buffer was comprised of 50 mM Tris-hydrochloric acid, 5 mM magnesium chloride (MgCl2) and 0.1 mM zinc chloride (ZnCl2) with final pH 9.5. For initial screening of compounds, first enzyme and substrate parameters (concentration, temperature, time) were optimized. The reaction assay was performed at 100 µL well volume containing assay buffer, 10 µL of 1 mM test compound prepared in 10% DMSO, enzymes NPP1 (35 ng), NPP3 (94 ng) and assay buffer. The reaction mixture was incubated at 37 °C, 10 minutes for NPP1 and NPP3. Absorbance was taken at wavelength of 405 nm as pre-read by using a microplate reader (BioTek FLx800, Instruments, Inc. USA). After pre-read the artificial substrate p-nitrophenyl 5'-thymidine monophosphate (pNP-TMP), 400 µM for NPP1 and 600 µM in case of NPP3, was added followed by a second incubation at 37 °C, 15 minutes for NPP1 and NPP3. Absorbance was taken as after read. All the experiments were performed in triplicate.
(§2) Cell transfection with human NPPs. Analogous as previously described, COS-7 cells were transfected with plasmids expressing human NPPs ((NPP-1) or (NPP-3)) in 10 cm plates, by using Lipofectamine. The confluent cells were incubated for 5 h at 37 °C in DMEM/F-12 in the absence of fetal bovine serum and with 6 µg of plasmid DNA and 24 µL of lipofectamine reagent. Subsequently, the same volume of DMEM/F-12 containing 20% FBS was added to stop the transfection and cells were harvested 48–72 h later.
(§3) Preparation of membrane fractions. Analogous as previously described, the transfected cells were washed three times with Tris–saline buffer at 4 °C and then the cells were collected by scraping in the harvesting buffer (95 mM NaCl, 0.1 mM PMSF, and 45 mM Tris buffer, pH 7.5). Afterwards, the cells were washed twice by centrifugation at 300g for 5 min at 4 °C [4]. These cells were resuspended in the harvesting buffer containing 1 0 µg/mL aprotinin and then sonicated. Cellular and nuclear debris were discarde d by 10 min centrifugation (300 g at 4 °C). Glycerol (final concentration of 7.5%) was added to the resulting supernatant and all the samples were kept at −80 °C until used. Bra dford microplate assay was used for the estimation of protein concentration. Bovine serum albumin was used as a reference standard.
(§4) Protocol of nucleotide pyrophosphatase (h -NPP-1 & h-NPP-3) activity. Analogous as previously described , the conditions for the assay were optimized with the slight modifications in previously used spectrophotometric method. The reaction was carried out in the assay buffer which contained 5 mM MgCl 2, 0.1 mM ZnCl 2, 25% glycerol and 50 mM tris-hydrochloride (pH: 9.5). Initial screening was performed at a concentration of 0.1 mM of the tested compounds. The total volume of 100 µL contained 70 µL of the assay buffer, 10 µL of tested compound (0.1 mM with final DMSO 1% (v/v)) and 10 µL of h -NPP-1 (27 ng of protein from CO S cell lysate in assay buffer ) or 10 µL of h -NPP-3 (25 ng of protein from COS cell lysate in assay buffer ). The mixture was pre -incubated for 10 minutes at 37 °C and absorbance was measured at 405 nm as pre -read using microplate reader (BioTek FLx800, Instruments, Inc. USA). The reaction was then initiated by the addition of 10 µL of p-Nph-5-TMP substrate at a final concentration of 0.5 mM and the reaction mixture was incubated for 30 more min at 37 °C. The change in the absorbance was measured as after -read. The activity of each compound was compared with the reaction in absence of tested compounds/inhibitors.
(§5) 3 activity were further evaluated for determination of IC 50 values. For this purpose, their dose response curves were obtained by assaying each inhibitor concentration against both NPPs […]
(§6) using the above mentioned reaction conditions. […]

h-NPP-3 = biological target: T2, h-NPP-3 (Homo sapiens, UniProt O14638); assay: Nucleotide pyrophosphatase inhibition assay (colorimetric, pNP-TMP substrate), h-NPP-3; format: biochemical; details: for selectivity of inhibitory response towards h-NPP-3: h-NPP-3 versus h-NPP-1, result in words
T2 construct: made in house; host or cells: COS-7 cells transiently transfected with a plasmid expressing human NPP-3; lysate/membrane fraction used as the enzyme
T2 sequence (O14638 1-875): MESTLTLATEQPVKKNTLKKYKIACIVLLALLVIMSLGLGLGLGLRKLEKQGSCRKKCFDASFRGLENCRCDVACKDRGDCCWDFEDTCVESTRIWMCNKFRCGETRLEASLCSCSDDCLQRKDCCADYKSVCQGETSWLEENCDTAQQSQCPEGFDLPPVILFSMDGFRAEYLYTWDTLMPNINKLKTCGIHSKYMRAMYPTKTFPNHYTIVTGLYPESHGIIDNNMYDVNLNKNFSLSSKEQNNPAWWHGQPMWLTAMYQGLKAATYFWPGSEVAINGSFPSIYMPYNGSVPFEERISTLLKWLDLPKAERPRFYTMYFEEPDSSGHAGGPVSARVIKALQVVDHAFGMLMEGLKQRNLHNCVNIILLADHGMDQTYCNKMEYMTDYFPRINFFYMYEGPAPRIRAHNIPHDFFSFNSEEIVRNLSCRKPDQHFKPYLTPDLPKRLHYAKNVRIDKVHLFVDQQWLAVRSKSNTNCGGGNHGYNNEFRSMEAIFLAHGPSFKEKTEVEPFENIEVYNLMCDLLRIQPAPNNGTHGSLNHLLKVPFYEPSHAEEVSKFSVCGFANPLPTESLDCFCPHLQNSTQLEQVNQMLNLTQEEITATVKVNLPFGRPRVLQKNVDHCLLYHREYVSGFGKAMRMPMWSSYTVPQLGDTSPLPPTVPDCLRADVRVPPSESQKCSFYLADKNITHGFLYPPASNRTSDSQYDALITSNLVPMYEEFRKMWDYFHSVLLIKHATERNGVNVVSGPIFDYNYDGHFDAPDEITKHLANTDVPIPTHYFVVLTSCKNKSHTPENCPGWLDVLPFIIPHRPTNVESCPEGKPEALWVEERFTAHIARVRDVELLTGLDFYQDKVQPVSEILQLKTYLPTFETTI
Protocol: as §1, §2, §3, §4, §5, §6

[1] = human recombinant NPP1, pNP-TMP substrate, pH 9.5, 37 °C, absorbance 405 nm, read-out: h-NPP-1 IC50 (µM) ± SEM
[2] = human recombinant NPP3, pNP-TMP substrate, pH 9.5, 37 °C, absorbance 405 nm, read-out: h-NPP-3 IC50(µM) ± SEM
[3] = read-out: h-NPP-3 IC50 ± SEM (unit inferred)

Compound | IC50 (h-NPP-1; [1]) [µM] | melting point [°C] | IC50 (h-NPP-3; [2]) [µM] | selectivity of inhibitory response towards h-NPP-3 (h-NPP-3) | other results
Cc1ccc(-n2c3ccccc3c3oc4ccccc4c32)cc1 [Compound 5b] | 2.84 ± 0.06 | 134 to 135 | 0.59 ± 0.02 |  | 
c1ccc2c(c1)oc1c3ccccc3n(C3CCCCC3)c21 [Compound 5j] | 6.14 ± 0.09 | 163 to 164 | 2.39 ± 0.05 |  | 
c1ccc(-n2c3ccccc3c3oc4ccccc4c32)cc1 [Compound 5a] | > 100 | 137 to 139 | 1.38 ± 0.03 | selective inhibitory response towards nucleotide pyrophosphatase enzyme h-NPP-3 | 
COc1ccc(-n2c3ccccc3c3oc4ccccc4c32)cc1OC [Compound 5f] |  | 175 to 176 |  |  | 
FC(F)(F)c1cccc(-n2c3ccccc3c3oc4ccccc4c32)c1 [Compound 5d] | 3.57 ± 0.03 | 178 to 179 | 0.49 ± 0.04 |  | 
c1ccc(Cn2c3ccccc3c3oc4ccccc4c32)cc1 [Compound 5h] | 2.62 ± 0.03 |  | 0.27 ± 0.06 |  | 
CCCCCCCn1c2ccccc2c2oc3ccccc3c21 [Compound 5i] | 3.27 ± 0.08 |  | 2.55 ± 0.07 |  | 
COc1ccc(-n2c3ccccc3c3oc4ccccc4c32)cc1 [Compound 5e] | > 100 |  |  | selective inhibitory response towards nucleotide pyrophosphatase enzyme h-NPP-3 | IC50 (h-NPP-3; read-out: inhibitory value for h-NPP-3, IC50 ± SEM): 0.26 ± 0.01 µM

Continued, in another order:

IC50 (h-NPP-1; [1]) [µM] | melting point [°C] | IC50 (h-NPP-3; [2]) [µM] | Compound | selectivity of inhibitory response towards h-NPP-3 (h-NPP-3) | other results
1.38 ± 0.09 |  | 0.18 ± 0.01 | COc1ccc(-n2c3ccccc3c3oc4c5ccccc5n(-c5ccc(OC)cc5)c4c32)cc1 [Compound 6d] |  | 
0.53 ± 0.09 |  | 0.21 ± 0.04 | c1ccc(Cn2c3ccccc3c3oc4c5ccccc5n(Cc5ccccc5)c4c32)cc1 [Compound 6e] |  | 
 |  | 0.61 ± 0.09 | Cc1ccc(-n2c3ccccc3c3oc4c5ccccc5n(-c5ccc(C)cc5)c4c32)cc1 [Compound 6a] |  | IC50 (h-NPP-1; read-out: inhibitory value for h-NPP-1, IC50 ± SEM): 0.11 ± 0.06 µM
> 100 |  |  | FC(F)(F)c1cccc(-n2c3ccccc3c3oc4c5ccccc5n(-c5cccc(C(F)(F)F)c5)c4c32)c1 [Compound 6c] | highly selective towards h-NPP-3 | interaction with enzyme h-NPP-1 (h-NPP-1): no interaction with enzyme h-NPP-1; IC50 (h-NPP-3; [3]): 0.28 ± 0.04 µM
> 100 |  |  | Fc1ccc(-n2c3ccccc3c3oc4c5ccccc5n(-c5ccc(F)cc5)c4c32)cc1 [Compound 6b] | highly selective towards h-NPP-3 | interaction with enzyme h-NPP-1 (h-NPP-1): no interaction with enzyme h-NPP-1; IC50 (h-NPP-3; [3]): 0.13 ± 0.06 µM
